Results on one substance are retold here after patent EP2727944A1, “Depletion of CCR2-positive monocytes for the treatment of inflammatory conditions in the gastrointestinal system” (Universitätsklinikum Regensburg, priority 2012, dated 2014).

The experiment concerns CX3CR1/GFP^intLy6C^hi effector monocytes. Put plainly: IL-6 ELISA of sorted colonic cells cultured with TLR/NOD2 ligands. Conditions: cells sorted at DSS day 7, cultured 16 hr; Pam3CSK4 10 µg/ml, LPS 100 ng/ml. The experiment is classed as cell-based, mice. An excerpt: To probe whether the pro-inflammatory signature of the effector monocytes could have been a result of TLR and NOD-2 engagement, the cells were isolated from colitic mice and exposed to the respective ligands.
A general note: In an ELISA, binding on a coated surface is turned into a signal by an enzyme label.

As to Pam3CSK4, the IL-6 secretion entry is “substantial IL-6 secretion”.
